Test results from patent publication US20050279350A1, “Methods and apparatus for relieving headaches, rhinitis and other common ailments” (priority 1999, published 2005).
Values joined by “and” are separate entries in the source; they are usually repeats but may differ in a detail not shown here. Identical values can stand only once. Like-named read-outs stand apart in the source and are kept apart here. Marks after values point to notes of the source that are not given here.

Test system: human subjects with migraine and tension-type headaches, jaw pain
Format: in vivo
Conditions: for Est. Rate / Est. Total Dose / Number of Doses / Single Dose Duration / Total Dose / Total Treatment Time: self-selected effective dose; for 24-hr. Recur Rate / After Effects / Symptom Free, Minutes Post-Treatment / Symptom, Relief, Minutes Post-Treatment: moderate; for range of average dose duration / range of volume of gas: across severities
Text: The test device was a hand-held, multi-dose, disposable, dispenser that was approximately 3 to 4 inches long and 6/8 to ⅞ inches in diameter constructed as described above. The device consisted of a plastic twist-top flow regulator mounted on top of a pressurized steel cartridge containing liquid carbon dioxide. The tip of the flow regulator has a nosepiece that is the optimal size and configuration to place against and seal off a nostril for administration of the gas. In a number of subjects, the effective nasal and oral carbon dioxide flow rates, and maximum tolerable nasal and oral flow rates, were measured using a laboratory apparatus. This apparatus consisted of a flow regulator connected via tubing to a flow meter and a large tank of carbon dioxide. These flow data were used, together with the number of seconds gas was administered during therapy, to calculate the estimated dose of gas in milliliters.
Of the total of 15 subjects included in the analysis, 11 used the treatment for 35 headaches and 9 subjects used it for 9 allergy attacks. […] subjects treated both headache and allergy but on different days. The subjects included adults, elderly, and children of both sexes in good general health, having mild, moderate, and severe headaches or having allergies to plant, animal, or airborne allergens. The device was used to treat migraine and tension-type headaches, jaw pain, and allergies (allergic rhinitis, with symptoms that included sinus congestion, sneezing, and itchy throat and eyes). There was no limitation on the duration of symptoms before treatment with the device. Subjects with no prior use of the device and those who have used it (to treat allergy symptoms) previously were included.
Carbon dioxide (100%) was administered nasally by the subject for a few seconds via a nostril to fill the nasal passages while holding their breath, or taking breaths of room air occasionally if the dose was lengthy. The gas exited the other nostril. Such nasal administration is similar to presently marketed nasal inhalers except that the administered gas was not inhaled. […] Subjects took as many doses as they needed for relief. It is important to note that there were no number of doses, duration of dose, time between doses, or gas flow rate specified for the user. Subjects chose their own regimen for symptom relief. Similarly, in medical practice today, gas therapy is a “titrate to effect” therapy without a specified dosage.
The International Headache Society (IHS) divides headache intensity into three categories: mild, moderate, and severe. The rating of the intensity level depends on the extent to which the headache interferes with the ability to function. […] The IHS uses headache relief at two hours as its primary outcome measure for present-day headache drug studies. Since therapy of the present invention acts much faster than present-day drugs, the primary outcome measure selected for this analysis was headache relief at 30 minutes. Each of the headache outcome measures used for this analysis is as follows: • Headache relief efficacy at 1, 5, 15, and 30 minutes post-treatment—headache relief efficacy is obtained when a pre-treatment headache severity of mild, moderate, or severe severity is improved to a post-treatment severity of none, mild, or moderate respectively. • Headache free efficacy at 1, 5, 15, and 30 minutes post-treatment—headache free efficacy is obtained when a pre-treatment headache of mild, moderate, or severe severity is improved to a post-treatment severity of none. • Headache recurrence within 24 hours post-treatment—recurrence within 24 hours is defined as no or mild headache severity after treatment that then worsened to moderate or severe headache severity within 24 hours after treatment with no use of rescue medication before the worsening. • Safety parameter—safety is defined as no adverse after-effects of treatment.

[1] = Headache-All, mild, severe, 1 min post-treatment
[2] = Headache-All, mild, severe, 5 min post-treatment
[3] = Headache-All, mild, severe, 15 min post-treatment
[4] = Headache-All, mild, severe, 30 min post-treatment
[5] = Headache-All, severe - IHS criteria
[6] = Headache-All, severe - IHS criteria, 1 min post-treatment
[7] = Headache-All, severe - IHS criteria, 5 min post-treatment
[8] = Headache-All, severe - IHS criteria, 15 min post-treatment
[9] = Headache-All, severe - IHS criteria, 30 min post-treatment
[10] = Migraine, mild, severe, 1 min post-treatment
[11] = Migraine, mild, severe, 5 min post-treatment
[12] = Migraine, mild, severe, 15 min post-treatment
[13] = Migraine, mild, severe, 30 min post-treatment
[14] = Migraine, severe - IHS criteria
[15] = Migraine, severe - IHS criteria, 1 min post-treatment
[16] = Migraine, severe - IHS criteria, 5 min post-treatment
[17] = Migraine, severe - IHS criteria, 15 min post-treatment
[18] = Migraine, severe - IHS criteria, 30 min post-treatment
[19] = Tension, mild, severe, 1 min post-treatment
[20] = Tension, mild, severe, 5 min post-treatment
[21] = Tension, mild, severe, 15 min post-treatment
[22] = Tension, mild, severe, 30 min post-treatment
[23] = Tension, severe - IHS criteria, 1 min post-treatment
[24] = Tension, severe - IHS criteria, 5 min post-treatment
[25] = Tension, severe - IHS criteria, 15 min post-treatment
[26] = Tension, severe - IHS criteria, 30 min post-treatment

SMILES: O=C=O [carbon dioxide]
- headache recurrence 24 hours post-treatment (35 headaches): no instances of headache recurrence
- Est. Rate (Headache-All): 4 mL/s
- Est. Total Dose (Headache-All): 124 mL
- Number of Doses (Headache-All): 2 #
- Single Dose Duration (Headache-All): 15 s
- Total Dose (Headache-All): 32 s
- Total Treatment Time (Headache-All): 7 min
- 24-hr. Recur Rate (Headache-All, mild, severe): 0%
- After Effects (Headache-All, mild, severe): 0%
- Symptom Free, Minutes Post-Treatment [1]: 31%
- Symptom, Relief, Minutes Post-Treatment [1]: 31%
- Symptom Free, Minutes Post-Treatment [2]: 60%
- Symptom, Relief, Minutes Post-Treatment [2]: 63%
- Symptom Free, Minutes Post-Treatment [3]: 74%
- Symptom, Relief, Minutes Post-Treatment [3]: 86%
- Symptom Free, Minutes Post-Treatment [4]: 80%
- Symptom, Relief, Minutes Post-Treatment [4]: 94%
- 24-hr. Recur Rate [5]: 0%
- After Effects [5]: 0%
- Symptom Free, Minutes Post-Treatment [6]: 16%
- Symptom, Relief, Minutes Post-Treatment [6]: 16%
- Symptom Free, Minutes Post-Treatment [7]: 52%
- Symptom, Relief, Minutes Post-Treatment [7]: 52%
- Symptom Free, Minutes Post-Treatment [8]: 72%
- Symptom, Relief, Minutes Post-Treatment [8]: 72%
- Symptom Free, Minutes Post-Treatment [9]: 80%
- Symptom, Relief, Minutes Post-Treatment [9]: 84%
- Est. Rate (Migraine-All): 3 mL/s
- Est. Total Dose (Migraine-All): 158 mL
- Number of Doses (Migraine-All): 2 #
- Single Dose Duration (Migraine-All): 29 s
- Total Dose (Migraine-All): 57 s
- Total Treatment Time (Migraine-All): 15 min
- Est. Rate (Migraine-Mild): 3 mL/s
- Est. Total Dose (Migraine-Mild): 82 mL
- Number of Doses (Migraine-Mild): 1 #
- Single Dose Duration (Migraine-Mild): 23 s
- Total Dose (Migraine-Mild): 30 s
- Total Treatment Time (Migraine-Mild): 1 min
- Est. Rate (Migraine-Severe): 3 mL/s
- Est. Total Dose (Migraine-Severe): 233 mL
- Number of Doses (Migraine-Severe): 2 #
- Single Dose Duration (Migraine-Severe): 35 s
- Total Dose (Migraine-Severe): 83 s
- Total Treatment Time (Migraine-Severe): 28 min
- 24-hr. Recur Rate (Migraine, mild, severe): 0%
- After Effects (Migraine, mild, severe): 0%
- Symptom Free, Minutes Post-Treatment [10]: 60%
- Symptom, Relief, Minutes Post-Treatment [10]: 60%
- Symptom Free, Minutes Post-Treatment [11]: 60%
- Symptom, Relief, Minutes Post-Treatment [11]: 60%
- Symptom Free, Minutes Post-Treatment [12]: 60%
- Symptom, Relief, Minutes Post-Treatment [12]: 60%
- Symptom Free, Minutes Post-Treatment [13]: 90%
- Symptom, Relief, Minutes Post-Treatment [13]: 90%
- 24-hr. Recur Rate [14]: 0%
- After Effects [14]: 0%
- Symptom Free, Minutes Post-Treatment [15]: 25%
- Symptom, Relief, Minutes Post-Treatment [15]: 25%
- Symptom Free, Minutes Post-Treatment [16]: 25%
- Symptom, Relief, Minutes Post-Treatment [16]: 25%
- Symptom Free, Minutes Post-Treatment [17]: 25%
- Symptom, Relief, Minutes Post-Treatment [17]: 25%
- Symptom Free, Minutes Post-Treatment [18]: 75%
- Symptom, Relief, Minutes Post-Treatment [18]: 100%
- Est. Rate (Tension-All): 4 mL/s
- Est. Total Dose (Tension-All): 122 mL
- Number of Doses (Tension-All): 3 #
- Single Dose Duration (Tension-All): 8 s
- Total Dose (Tension-All): 24 s
- Total Treatment Time (Tension-All): 6 min
- Est. Rate (Tension-Mild): 3 mL/s
- Est. Total Dose (Tension-Mild): 28 mL
- Number of Doses (Tension-Mild): 2 #
- Single Dose Duration (Tension-Mild): 3 s
- Total Dose (Tension-Mild): 6 s
- Total Treatment Time (Tension-Mild): 2 min
- Est. Rate (Tension-Moderate): 4 mL/s
- Est. Total Dose (Tension-Moderate): 50 mL
- Number of Doses (Tension-Moderate): 2 #
- Single Dose Duration (Tension-Moderate): 6 s
- Total Dose (Tension-Moderate): 11 s
- Total Treatment Time (Tension-Moderate): 4 min
- Est. Rate (Tension-Severe): 5 mL/s
- Est. Total Dose (Tension-Severe): 288 mL
- Number of Doses (Tension-Severe): 4 #
- Single Dose Duration (Tension-Severe): 15 s
- Total Dose (Tension-Severe): 56 s
- Total Treatment Time (Tension-Severe): 11 min
- 24-hr. Recur Rate (Tension, mild, severe): 0%
- After Effects (Tension, mild, severe): 0%
- Symptom Free, Minutes Post-Treatment [19]: 20%
- Symptom, Relief, Minutes Post-Treatment [19]: 20%
- Symptom Free, Minutes Post-Treatment [20]: 64%
- Symptom, Relief, Minutes Post-Treatment [20]: 64%
- Symptom Free, Minutes Post-Treatment [21]: 80%
- Symptom, Relief, Minutes Post-Treatment [21]: 96%
- Symptom Free, Minutes Post-Treatment [22]: 80%
- Symptom, Relief, Minutes Post-Treatment [22]: 96%
- 24-hr. Recur Rate (Tension, severe - IHS criteria): 0%
- After Effects (Tension, severe - IHS criteria): 0%
- Symptom Free, Minutes Post-Treatment [23]: 14%
- Symptom, Relief, Minutes Post-Treatment [23]: 14%
- Symptom Free, Minutes Post-Treatment [24]: 55%
- Symptom, Relief, Minutes Post-Treatment [24]: 55%
- Symptom Free, Minutes Post-Treatment [25]: 77%
- Symptom, Relief, Minutes Post-Treatment [25]: 77%
- Symptom Free, Minutes Post-Treatment [26]: 80% and 77%
- Symptom, Relief, Minutes Post-Treatment [26]: 77%
- headache outcome in an individual subject (all subsequent mild and severe migraines, two to three doses for 25 sec each=120 ml): completely eliminate
- dose dependence of the treatment (analysis of the headache and allergy therapy data (Table IV)): dose dependent
- headache outcome in an individual subject (at onset of a migraine, doses twice for 20 to 25 seconds): completely aborts the migraine and it does not recur
- adverse after effects of treatment (headache subjects): no subjects reported any adverse after effects
- onset of symptom relief (headache, while administering the first dose): immediate onset of symptom relief within seconds
- efficacy (migraine and tension-type headache, occurring in seconds to minutes): 80-94%
- range of average dose duration (migraine headaches): 30 to 83 s
- range of volume of gas (migraine headaches): 82 to 233 mL
- headache outcome in an individual subject (mild migraine, first use of device, one dose for 30 sec=60 ml): unable to improve
- headache outcome in an individual subject (moderate tension headache, one dose of 1 sec=2 ml): no success
- headache outcome in an individual subject (severe jaw/tooth ache, three doses of 45 sec each=675 ml): completely eliminate
- headache outcome in an individual subject (severe tension headache, three doses of 15 sec each=225 ml): completely eliminate
- headache outcome in an individual subject (severe tension headaches, three occasions, six doses of 8 sec each=240 ml): only moderate success
- range of average dose duration (tension-type headaches): 6 to 56 s
- range of volume of gas (tension-type headaches): 28 to 288 mL
